Results as given in patent US8993574B2, “Pyrrole antifungal agents” (F2G Ltd, priority 2008, dated 2015).
In brackets after ≈: the same amount, converted by molar mass.

What was measured:
Type in all cases: cell-based
[1] = test system: Aspergillus fumigatus AF293; experiment: MIC, RPMI medium; conditions: for MIC: Aspergillus fumigatus, AF293, MIC banded into grades, read-out: MIC grade, A. fumigatus; for MIC grade, A. fumigatus: MIC banded into grades
Method in brief: (§1)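 RPMI (2% glucose, 0.135 M MOPS, pH 7.0) microdilution; drug 50-0.05 mg/L doubling series; inoculum 1−2×10^4 cfu/mL; 24-48 h, 35° C; OD485; MIC = lowest conc. with >80% inhibition vs drug-free control.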

Aspergillus flavus [2] = experiment: MIC, RPMI medium; conditions: MIC banded into grades; for MIC: Aspergillus flavus, read-out: MIC grade, A. flavus
Method in brief: as §1

[3] = test system: Aspergillus fumigatus AF210; experiment: MIC, RPMI medium; conditions: for MIC: Aspergillus fumigatus, AF210, MIC banded into grades, read-out: MIC grade, A. fumigatus 210; for MIC grade, A. fumigatus 210: MIC banded into grades
Method in brief: as §1

Aspergillus terreus AT49 [4] = experiment: MIC, RPMI medium; conditions: for MIC: Aspergillus terreus, AT49, MIC banded into grades, read-out: MIC grade, A. terreus 49; for MIC grade, A. terreus 49: MIC banded into grades
Method in brief: as §1

Aspergillus terreus AT4 [5] = experiment: MIC, RPMI medium; conditions: for MIC: Aspergillus terreus, AT4, MIC banded into grades, read-out: MIC grade, A. terreus; for MIC grade, A. terreus: MIC banded into grades
Method in brief: as §1

Aspergillus niger [6] = experiment: MIC, RPMI medium; conditions: MIC banded into grades; for MIC: Aspergillus niger, read-out: MIC grade, A. niger
Method in brief: as §1

[7] = test system: Aspergillus fumigatus AF293; experiment: MIC, YAG medium; conditions: 24 h at 35° C, MIC banded into grades; for MIC: Aspergillus fumigatus, read-out: MIC grade, A. fumigatus
Method in brief: (§2)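 Spores harvested from 5-day Sabouraud agar cultures were inoculated at 1−2×10^4 cfu/mL into YAG medium (1% glucose, 1% ammonium chloride, 0.5% yeast extract) over doubling drug dilutions spanning 50-0.05 mg/L, or 0.5-0.0005 mg/L on repeat. After 24 h at 35° C, OD485 was read. MIC is the lowest concentration inhibiting growth >70% versus drug-free control, in mg/L.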

Aspergillus flavus [8] = experiment: MIC, YAG medium; conditions: 24 h at 35° C, MIC banded into grades; for MIC: Aspergillus flavus, 24 h, read-out: MIC grade, A. flavus
Method in brief: as §2

[9] = test system: Aspergillus fumigatus AF210; experiment: MIC, YAG medium; conditions: 24 h at 35° C, MIC banded into grades; for MIC: Aspergillus fumigatus, read-out: MIC grade, A. fumigatus 210
Method in brief: as §2

Aspergillus terreus AT49 [10] = experiment: MIC, YAG medium; conditions: 24 h at 35° C, MIC banded into grades; for MIC: Aspergillus terreus, read-out: MIC grade, A. terreus 49
Method in brief: as §2

Aspergillus terreus AT4 [11] = experiment: MIC, YAG medium; conditions: 24 h at 35° C, MIC banded into grades; for MIC: Aspergillus terreus, read-out: MIC grade, A. terreus
Method in brief: as §2

Aspergillus niger [12] = experiment: MIC, YAG medium; conditions: 24 h at 35° C, MIC banded into grades; for MIC: Aspergillus niger, read-out: MIC grade, A. niger
Method in brief: as §2

Compound | MIC [1] [mg/L] | MIC (Aspergillus flavus [2]) [mg/L] | MIC [3] [mg/L] | MIC (Aspergillus terreus AT49 [4]) [mg/L] | MIC (Aspergillus terreus AT4 [5]) [mg/L] | MIC (Aspergillus niger [6]) [mg/L] | MIC [7] [mg/L] | MIC (Aspergillus flavus [8]) [mg/L] | MIC [9] [mg/L] | MIC (Aspergillus terreus AT49 [10]) [mg/L] | MIC (Aspergillus terreus AT4 [11]) [mg/L] | MIC (Aspergillus niger [12]) [mg/L] | other results
CCCCn1c(C)cc(-c2ccccc2)c1C(=O)C(=O)Nc1ccc(N2CCN(c3cc(C)cc(C)n3)CC2)cc1 [Example 36, 2-(1-Butyl-5-methyl-3-phenyl-1H-pyrrol-2-yl)-N-{4-[4-(4,6-dimethyl-pyridin-2-yl)-piperazin-1-yl]-phenyl}-2-oxo-acetamide] | < 1 | < 1 | < 1 | < 1 | < 1 | < 1 | < 1 | < 1 | < 1 | < 1 | < 1 | < 1 | –
Cc1cc(C)nc(N2CCN(c3ccc(NC(=O)C(=O)c4cc(-c5ccccc5)c5n4CCCCC5)cc3)CC2)c1 [41 b] | – | – | – | – | – | – | – | – | – | – | – | – | MIC grade, A. fumigatus [1]: 2 (A grade of 2 represents an MIC of from 1 to 10 mg/L); MIC grade, A. flavus (Aspergillus flavus [2]): 1 (a grade of 1 represents an MIC of greater than 10 mg/L); MIC grade, A. fumigatus 210 [3]: 1 (a grade of 1 represents an MIC of greater than 10 mg/L); MIC grade, A. terreus 49 (Aspergillus terreus AT49 [4]): 1 (a grade of 1 represents an MIC of greater than 10 mg/L); MIC grade, A. terreus (Aspergillus terreus AT4 [5]): 1 (a grade of 1 represents an MIC of greater than 10 mg/L); MIC grade, A. niger (Aspergillus niger [6]): 1 (a grade of 1 represents an MIC of greater than 10 mg/L); MIC grade, A. fumigatus [7]: 2 (A grade of 2 represents an MIC of from 1 to 10 mg/L); MIC grade, A. flavus (Aspergillus flavus [8]): 1 (a grade of 1 represents an MIC of greater than 10 mg/L); MIC grade, A. fumigatus 210 [9]: 2 (A grade of 2 represents an MIC of from 1 to 10 mg/L); MIC grade, A. terreus 49 (Aspergillus terreus AT49 [10]): 1 (a grade of 1 represents an MIC of greater than 10 mg/L); MIC grade, A. terreus (Aspergillus terreus AT4 [11]): 1 (a grade of 1 represents an MIC of greater than 10 mg/L); MIC grade, A. niger (Aspergillus niger [12]): 1 (a grade of 1 represents an MIC of greater than 10 mg/L)
Cc1cc(-c2ccccc2)c(C(=O)C(=O)Nc2ccc3ccccc3c2)n1C [Example 44, 2-(1,5-Dimethyl-3-phenyl-1H-pyrrol-2-yl)-N-naphthalen-2-yl-2-oxo-acetamide] | < 1 | < 1 | < 1 | < 1 | < 1 | < 1 | < 1 | < 1 | < 1 | < 1 | < 1 | < 1 | –
CCOCCCn1c(C)cc(-c2ccccc2)c1C(=O)C(=O)Nc1ccc(N2CCN(c3cc(C)cc(C)n3)CC2)cc1 [Example 136, N-{4-[4-(4,6-Dimethyl-pyridin-2-yl)-piperazin-1-yl]-phenyl}-2-[1-(3-ethoxy-propyl)-5-methy-3-phenyl-1H-pyrrol-2-yl]-2-oxo-acetamide] | – | – | – | – | – | – | – | – | – | – | – | – | MIC grade, A. fumigatus [1]: 2 (A grade of 2 represents an MIC of from 1 to 10 mg/L); MIC grade, A. flavus (Aspergillus flavus [2]): 2 (A grade of 2 represents an MIC of from 1 to 10 mg/L); MIC grade, A. fumigatus 210 [3]: 2 (A grade of 2 represents an MIC of from 1 to 10 mg/L); MIC grade, A. terreus 49 (Aspergillus terreus AT49 [4]): 2 (A grade of 2 represents an MIC of from 1 to 10 mg/L); MIC grade, A. terreus (Aspergillus terreus AT4 [5]): 2 (A grade of 2 represents an MIC of from 1 to 10 mg/L); MIC grade, A. niger (Aspergillus niger [6]): 2 (A grade of 2 represents an MIC of from 1 to 10 mg/L); MIC grade, A. fumigatus [7]: 3 (A grade of 3 represents an MIC of less than 1 mg/L); MIC grade, A. flavus (Aspergillus flavus [8]): 3 (A grade of 3 represents an MIC of less than 1 mg/L); MIC grade, A. fumigatus 210 [9]: 3 (A grade of 3 represents an MIC of less than 1 mg/L); MIC grade, A. terreus 49 (Aspergillus terreus AT49 [10]): 3 (A grade of 3 represents an MIC of less than 1 mg/L); MIC grade, A. terreus (Aspergillus terreus AT4 [11]): 2 (A grade of 2 represents an MIC of from 1 to 10 mg/L); MIC grade, A. niger (Aspergillus niger [12]): 3 (A grade of 3 represents an MIC of less than 1 mg/L)
Cc1cc(C)nc(N2CCN(c3ccc(NC(=O)C(=O)c4c(-c5ccccc5)cc5n4CCCCC5)cc3)CC2)c1 [41 a] | – | – | – | – | – | – | – | – | – | – | – | – | MIC grade, A. fumigatus [1]: 2 (A grade of 2 represents an MIC of from 1 to 10 mg/L); MIC grade, A. flavus (Aspergillus flavus [2]): 1 (a grade of 1 represents an MIC of greater than 10 mg/L); MIC grade, A. fumigatus 210 [3]: 1 (a grade of 1 represents an MIC of greater than 10 mg/L); MIC grade, A. terreus 49 (Aspergillus terreus AT49 [4]): 3 (A grade of 3 represents an MIC of less than 1 mg/L); MIC grade, A. terreus (Aspergillus terreus AT4 [5]): 2 (A grade of 2 represents an MIC of from 1 to 10 mg/L); MIC grade, A. niger (Aspergillus niger [6]): 1 (a grade of 1 represents an MIC of greater than 10 mg/L); MIC grade, A. fumigatus [7]: 3 (A grade of 3 represents an MIC of less than 1 mg/L); MIC grade, A. flavus (Aspergillus flavus [8]): 3 (A grade of 3 represents an MIC of less than 1 mg/L); MIC grade, A. fumigatus 210 [9]: 3 (A grade of 3 represents an MIC of less than 1 mg/L); MIC grade, A. terreus 49 (Aspergillus terreus AT49 [10]): 3 (A grade of 3 represents an MIC of less than 1 mg/L); MIC grade, A. terreus (Aspergillus terreus AT4 [11]): 3 (A grade of 3 represents an MIC of less than 1 mg/L); MIC grade, A. niger (Aspergillus niger [12]): 3 (A grade of 3 represents an MIC of less than 1 mg/L)
Cc1cc(-c2ccccc2)c(C(=O)C(=O)Nc2ccc(N3CCN(c4ccc(CN5CCOCC5)cn4)CC3)cc2)n1C [Example 120, 2-(1,5-Dimethyl-3-phenyl-1H-pyrrol-2-yl)-N-{4-[4-(5-morpholin-4-ylmethyl-pyridin-2-yl)-piperazin-1-yl]-phenyl}-2-oxo-acetamide] | < 1 | < 1 | < 1 | < 1 | < 1 | < 1 | < 1 | < 1 | < 1 | < 1 | < 1 | < 1 | –
Cc1cc(C)nc(N2CCN(c3ccc(NC(=O)C(=O)c4c(-c5ccccc5)cc(C)n4C)cc3COCCCN3CCOCC3)CC2)c1 [Example 10, 2-(1,5-Dimethyl-3-phenyl-1H-pyrrol-2-yl)-N-[4-[4-(4,6-dimethyl-pyridin-2-yl)-piperazin-1-yl]-3-(3-morpholin-4-yl-propoxymethyl)-phenyl]-2-oxo-acetamide] | > 10 | > 10 | > 10 | > 10 | > 10 | > 10 | > 10 | 1 to 10 (≈ 1.5 to 15 µM) | > 10 | 1 to 10 (≈ 1.5 to 15 µM) | > 10 | > 10 | –

The next lines start with results.

MIC [1] [mg/L] | MIC (Aspergillus flavus [2]) [mg/L] | MIC [3] [mg/L] | MIC (Aspergillus terreus AT49 [4]) [mg/L] | MIC (Aspergillus terreus AT4 [5]) [mg/L] | MIC (Aspergillus niger [6]) [mg/L] | MIC [7] [mg/L] | MIC (Aspergillus flavus [8]) [mg/L] | MIC [9] [mg/L] | MIC (Aspergillus terreus AT49 [10]) [mg/L] | MIC (Aspergillus terreus AT4 [11]) [mg/L] | MIC (Aspergillus niger [12]) [mg/L] | Compound | other results
< 1 | < 1 | < 1 | < 1 | < 1 | < 1 | < 1 | < 1 | < 1 | < 1 | < 1 | < 1 | Cc1cc(-c2ccccc2)c(C(=O)C(=O)Nc2ccc(N3CCCCC3)cc2F)n1C [Example 106, 2-(1,5-Dimethyl-3-phenyl-1H-pyrrol-2-yl)-N-(2-fluoro-4-piperidin-1-yl-phenyl)-2-oxo-acetamide] | –
< 1 | < 1 | < 1 | < 1 | < 1 | < 1 | < 1 | < 1 | < 1 | < 1 | < 1 | < 1 | Cc1cc(-c2ccccc2)c(C(=O)C(=O)Nc2ccc(N3CCCCC3)cc2)n1C [Example 143, 2-(1,5-Dimethyl-3-phenyl-1H-pyrrol-2-yl)-2-oxo-N-(4-piperidin-1-yl-phenyl)-acetamide] | –
1 to 10 (≈ 2.71 to 27.1 µM) | 1 to 10 (≈ 2.71 to 27.1 µM) | 1 to 10 (≈ 2.71 to 27.1 µM) | < 1 | < 1 | 1 to 10 (≈ 2.71 to 27.1 µM) | 1 to 10 (≈ 2.71 to 27.1 µM) | < 1 | 1 to 10 (≈ 2.71 to 27.1 µM) | < 1 | < 1 | 1 to 10 (≈ 2.71 to 27.1 µM) | Cc1cc(-c2ccccc2)c(C(=O)C(=O)Nc2cccc3cccnc23)n1C [Example 31, 2-(1,5-Dimethyl-3-phenyl-1H-pyrrol-2-yl)-2-oxo-N-quinolin-8-yl-acetamide] | –
< 1 | < 1 | < 1 | < 1 | < 1 | < 1 | < 1 | < 1 | < 1 | < 1 | < 1 | < 1 | COCC(C)N1CCN(c2ccc(NC(=O)C(=O)c3c(-c4ccccc4)cc(C)n3C)cc2)CC1 (stereo not drawn) [Example 151, 2-(1,5-Dimethyl-3-phenyl-1H-pyrrol-2-yl)-N-{4-[4-(2-methoxy-1-methyl-ethyl)-piperazin-1-yl]-phenyl}-2-oxo-acetamide] | –
